Experimental data taken from US4533739A, “2-[(Aminophenyl and amidophenyl)amino]-1-azacycloalkanes having antidiarrheal activity” (G. D. Searle & Co., priority 1982, dated 1985).
Where a name gives a salt, the structure may show the parent alone.

System: not given
Experiment: not given
Conditions: lowering of blood pressure, hyperglycemic activity, inhibitory action on central nervous system; cited from earlier work
In the case of Clc1cccc(Cl)c1N=C1CCCN1 [2-(2,6-dichloroophenylimino)pyrrolidine], the “pharmacodynamic activity in words” value is listed as “pharmacodynamically active”.

System: castor-oil-induced diarrhea
Experiment: Castor oil-induced diarrhea in rats
Conditions: Rattus norvegicus, po, 4 h, read-out: Castor Oil ID50 (mg/kg)-4 hr.
Work on Cc1cc(N)ccc1NC1=NCCC1.Cl.Cl [Example 9, 2-[(2-Methyl-4-aminophenyl)amino]-1-pyrroline, dihydrochloride] yielded an ED50 of 0.97 mg/kg.
Compound Cc1cc(N)cc(C)c1NC1=NCCC1.Cl.Cl [Example 11, 2-[(2,6-Dimethyl-4-aminophenyl)amino]-1-pyrroline, dihydrochloride] has an ED50 of 13.6 mg/kg.
CC(=O)Nc1ccc(NC2=NCCC2)c(C)c1 [Example 16, 2-[(2-Methyl-4-acetamidopheny)amino]-1-pyrroline, hydrochloride] showed an ED50 of 3.63 mg/kg.
In the case of CCC(=O)Nc1ccc(NC2=NCCC2)c(C)c1.Cl [Example 18, 2-[(2-Methyl-4-(propanamido)phenyl)amino]-1-pyrroline, hydrochloride], the ED50 was 0.97 mg/kg.
CCOC(=O)Nc1ccc(NC2=NCCC2)c(C)c1.Cl [Example 23, 2-[(2-Methyl-4-(ethoxycarbonylamino)phenyl)-amino]-1-pyrroline, hydrochloride] showed an ED50 of 1.81 mg/kg.
